Measured values taken from patent US20180099931A1 (AbbVie S.à.r.l., priority 2016, published 2018).
Like-named read-outs stand apart in the source and are kept apart here.

Target: T1, F508delCFTR (Homo sapiens, UniProt P13569, DEL508-508)
T1 construct: expressed in transfected cells; host or cells: CFBE41o- human lung-derived epithelial cells (CFBE4lo-F508delCFTR-HRP), doxycycline-inducible
Experiment: Cell Surface Expression-Horse Radish Peroxidase (CSE-HRP) Assay;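 on Maximum % activity (with co-corrector): co-corrector and positive control are both the same reference corrector at 2 µM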;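 on Maximum % activity (without co-corrector): percent of the 2 µM on-plate positive control corrector response above DMSO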
Format: cell-based
Conditions: for Maximum % activity (with co-corrector) / Emax: maximum at any tested concentration, normalized to on-plate positive control; for Emax: read-out: Maximum % activity (without co-corrector)
Description: Cell Surface Expression-Horse Radish Peroxidase (CSE-HRP) Assay;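 on Maximum % activity (with co-corrector): co-corrector and positive control are both the same reference corrector at 2 µM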;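 on Maximum % activity (without co-corrector): percent of the 2 µM on-plate positive control corrector response above DMSO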
The development was achieved by expressing the F508delCFTR mutation along with a horseradish peroxidase (HRP) in the fourth exofacial loop, and then measuring the HRP activity using luminescence readout from these cells, CFBE4lo-F508delCFTR-HRP, that were incubated overnight with the test corrector compounds, either without or with the co-corrector. […] The test compounds were then added either without or with a co-corrector at the required concentrations and further incubated for 18-24 hours at 33° C. The highest concentration tested was 20 μM with an 8-point concentration response curve using a 3-fold dilution in both the test compound without or with the co-corrector. Three replicate plates were run to determine one EC50. All plates contained negative controls (dimethyl sulfoxide, DMSO) and positive control (2 μM of 3-[(2R,4R)-4-({[1-(2,2-difluoro-1,3-benzodioxol-5-yl)cyclopropyl]carbonyl}amino)-7-methoxy-3,4-dihydro-2H-chromen-2-yl]benzoic acid) as well as on-plate concentration response of the positive control. […] The raw counts from the experiment were analyzed using Accelrys® Assay Explorer v3.3.
1−[3*SDPositive Control+3*SDNegative Control/Absolute(MeanPositive Control−MeanNegative Control)]
wherein “SD” is standard deviation.
The % activity measured at each of the 8 test concentrations of the test compound added either without or with a co-corrector (2 μM of 3-[(2R,4R)-4-({[1-(2,2-difluoro-1,3-benzodioxol-5-yl)cyclopropyl]carbonyl}amino)-7-methoxy-3,4-dihydro-2H-chromen-2-yl]benzoic acid) was normalized to the on-plate positive control using the following formulae:
% activity(Test compound without co-corrector)=[(test compound without co-corrector response−DMSO response)/(positive control response−DMSO response)]*100
% activity(Test compound with co-corrector)=[(test compound with co-corrector response−DMSO response)/(positive control response−DMSO response)]*100
The maximum % activity achieved for the test compound either without or with a co-corrector at any tested concentration is presented in Table 4 along with the respective EC50's calculated using the following general sigmoidal curve with variable Hill slope equation (described as Model 42 in the Accelrys® Assay Explorer v3.3 software):
General sigmoidal curve with concentration, response, top, bottom, EC50 and Hill slope. This model describes a sigmoidal curve with an adjustable baseline, a. The equation can be used to fit curves where response is either increasing or decreasing with respect to the independent variable, “x”.
“x” is a concentration of drug under test. “y” is the response. “a” is the maximum response, and “d” is the minimum response “c” is the inflection point (EC50) for the curve. That is, “y” is halfway between the lower and upper asymptotes when x=c. “b” is the slope-factor or Hill coefficient. The sign of b is positive when the response increases with increasing dose and is negative when the response decreases with increasing dose (inhibition).

[1] = CSE-HRP, test compound without co-corrector, read-out: EC50 (without co-corrector)
[2] = CSE-HRP, with co-corrector (2 μM of 3-[(2R,4R)-4-({[1-(2,2-difluoro-1,3-benzodioxol-5-yl)cyclopropyl]carbonyl}amino)-7-methoxy-3,4-dihydro-2H-chromen-2-yl]benzoic acid), read-out: EC50 (with co-corrector)
[3] = CSE-HRP, with co-corrector (2 μM)
[4] = test compound without co-corrector
[5] = test compound without co-corrector, read-out: EC50 (without co-corrector)
[6] = with co-corrector (2 μM of 3-[(2R,4R)-4-({[1-(2,2-difluoro-1,3-benzodioxol-5-yl)cyclopropyl]carbonyl}amino)-7-methoxy-3,4-dihydro-2H-chromen-2-yl]benzoic acid), read-out: EC50 (with co-corrector)
[7] = with co-corrector (2 μM of 3-[(2R,4R)-4-({[1-(2,2-difluoro-1,3-benzodioxol-5-yl)cyclopropyl]carbonyl}amino)-7-methoxy-3,4-dihydro-2H-chromen-2-yl]benzoic acid)

T1 sequence (P13569 with tags, fused parts or gaps DEL508-508): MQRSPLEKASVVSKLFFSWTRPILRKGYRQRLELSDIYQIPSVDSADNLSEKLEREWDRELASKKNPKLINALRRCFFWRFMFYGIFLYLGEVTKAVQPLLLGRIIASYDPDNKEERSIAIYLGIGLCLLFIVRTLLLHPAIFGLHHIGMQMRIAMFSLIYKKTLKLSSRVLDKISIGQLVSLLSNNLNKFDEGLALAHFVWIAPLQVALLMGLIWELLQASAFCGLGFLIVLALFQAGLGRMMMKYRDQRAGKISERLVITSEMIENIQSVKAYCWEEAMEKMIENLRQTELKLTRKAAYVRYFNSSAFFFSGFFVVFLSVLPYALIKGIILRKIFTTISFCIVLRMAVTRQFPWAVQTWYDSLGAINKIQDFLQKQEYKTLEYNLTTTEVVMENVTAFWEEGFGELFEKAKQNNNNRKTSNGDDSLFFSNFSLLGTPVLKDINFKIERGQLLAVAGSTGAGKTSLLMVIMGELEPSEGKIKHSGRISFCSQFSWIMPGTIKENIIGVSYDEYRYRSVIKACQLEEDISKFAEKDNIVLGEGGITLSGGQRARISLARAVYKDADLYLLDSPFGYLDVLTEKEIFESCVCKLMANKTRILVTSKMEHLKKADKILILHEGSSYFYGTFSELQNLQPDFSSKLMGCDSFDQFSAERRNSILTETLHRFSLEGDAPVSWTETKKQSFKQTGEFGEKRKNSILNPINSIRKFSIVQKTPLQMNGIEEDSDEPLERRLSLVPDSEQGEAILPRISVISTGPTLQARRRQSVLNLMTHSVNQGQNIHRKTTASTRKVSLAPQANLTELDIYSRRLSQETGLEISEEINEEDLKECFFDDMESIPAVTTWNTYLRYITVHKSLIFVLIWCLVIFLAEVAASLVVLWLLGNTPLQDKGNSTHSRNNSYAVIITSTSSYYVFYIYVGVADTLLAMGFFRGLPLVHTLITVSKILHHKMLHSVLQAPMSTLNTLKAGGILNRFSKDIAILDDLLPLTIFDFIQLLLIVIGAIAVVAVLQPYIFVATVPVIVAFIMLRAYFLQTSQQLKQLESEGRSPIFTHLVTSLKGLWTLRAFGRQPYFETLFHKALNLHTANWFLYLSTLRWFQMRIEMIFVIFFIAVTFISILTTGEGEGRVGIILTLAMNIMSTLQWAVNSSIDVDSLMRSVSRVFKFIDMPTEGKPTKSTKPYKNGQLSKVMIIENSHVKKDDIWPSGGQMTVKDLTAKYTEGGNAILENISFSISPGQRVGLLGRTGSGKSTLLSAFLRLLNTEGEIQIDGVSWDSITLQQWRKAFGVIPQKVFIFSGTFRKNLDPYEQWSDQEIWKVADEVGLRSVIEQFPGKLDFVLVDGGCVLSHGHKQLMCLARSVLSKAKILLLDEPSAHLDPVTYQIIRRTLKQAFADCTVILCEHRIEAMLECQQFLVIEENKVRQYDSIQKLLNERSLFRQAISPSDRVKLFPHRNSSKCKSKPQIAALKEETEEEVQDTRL

Row | Structure (SMILES) | EC50 [1] [nM] | EC50 [2] [nM] | Maximum % activity (with co-corrector) [3] | Emax (CSE-HRP, without co-corrector) [%] | Emax [4] [%] | EC50 [5] [nM] | EC50 [6] [nM] | Maximum % activity (with co-corrector) (with co-corrector (2 μM)) | Emax (without co-corrector) [%] | Maximum % activity (with co-corrector) [7]
1 | COc1ccc(C(C)(C)C)cc1CN[C@H]1[C@H](C(C)(C)C)[C@@H](C(=O)O)N(C(=O)C(C)Oc2cccc(F)c2)[C@H]1c1ccccc1 (stereo partly shown) [II-305] | < 1000 | < 1000 | +++ (≥350) | 100 to 200 |  |  |  |  |  | 
2 | COc1cc(C(C)(C)C)ccc1CN[C@H]1[C@H](C(C)(C)C)[C@@H](C(=O)O)N(C(=O)C2CCCCC2)[C@H]1c1ccccc1 [II-103] | 1000 to 10000 | 1000 to 10000 | +++ (≥350) | 100 to 200 |  |  |  |  |  | 
3 | COc1ccc(C(C)(C)C)cc1CN[C@H]1[C@H](C(C)(C)C)[C@@H](C(=O)O)N(C(=O)C2C3C2[C@H]2CC[C@@H]3C2)[C@H]1c1ccccc1 (stereo partly shown) [III-192] |  |  |  |  | > 200 | < 1000 | < 1000 | +++ (≥350) |  | 
4 | COc1ccc(Cl)c2c1CN([C@H]1[C@H](C(C)(C)C)[C@@H](C(=O)O)N(C(=O)[C@@H]3CCCCO3)[C@H]1c1ccccc1C(C)C)C2 [Example I-308] | 1000 to 10000 | < 1000 | +++ (≥350) | < 100 |  |  |  |  |  | 
5 | CC(C)(C)[C@H]1[C@H](NCc2cc(Cl)ccc2O)[C@H](c2ccccc2)N(C(=O)C2CCCCC2)[C@@H]1C(=O)O [Example I-51] |  |  |  |  |  | > 10000 | 1000 to 10000 | ++ (≥150 and <350) | < 100 | 
6 | COc1ccc(CN[C@H]2[C@H](C(C)(C)C)[C@@H](C(=O)O)N(C(=O)C3CCCCC3)[C@H]2c2ccccc2)c(C(F)(F)F)c1 [II-109] | < 1000 | 1000 to 10000 | ++ (≥150 and <350) | < 100 |  |  |  |  |  | 
7 | COc1ncc(N2CCCC2)cc1CN[C@H]1[C@H](C(C)(C)C)[C@@H](C(=O)O)N(C(=O)C2CCCCC2)[C@H]1c1ccccc1 [II-246] | 1000 to 10000 | 1000 to 10000 | +++ (≥350) | 100 to 200 |  |  |  |  |  | 
8 | CC(C)(C)[C@H]1[C@H](NCc2ccccc2C(F)F)[C@H](c2ccccc2)N(C(=O)C2CCCCC2)[C@@H]1C(=O)O [III-139] |  |  |  |  | < 100 | < 1000 | < 1000 | ++ (≥150 and <350) |  | 
9 | COc1ccc(C(C)(C)C)cc1CN[C@H]1[C@H](C(C)(C)C)[C@@H](C(=O)O)N(C(=O)CC2CCCCO2)[C@H]1c1ccccc1 (stereo partly drawn) [Example 20, (2S,3S,4S,5S)-3-tert-butyl-4-{[(5-tert-butyl-2-methoxyphenyl)methyl]amino}-1-[(oxan-2-yl)acetyl]-5-phenylpyrrolidine-2-carboxylic acid] |  |  |  |  |  | 1000 to 10000 | 1000 to 10000 | +++ (≥350) | 100 to 200 | 
10 | COc1ccc(C(C)(C)C)cc1CN[C@H]1[C@H](C(C)(C)C)[C@@H](C(=O)O)N(C(=O)c2cnn3c2CCCC3)[C@H]1c1ccccc1 [II-364] |  |  |  |  | 100 to 200 | 1000 to 10000 | 1000 to 10000 |  |  | +++ (≥350)
11 | CC(C)(C)[C@@H]1[C@@H](NCc2cc(C(F)(F)F)ccc2OCCCS(C)(=O)=O)[C@@H](c2ccccc2)N(C(=O)C2CCCCC2)[C@H]1C(=O)O (racemic) [III-84] |  |  |  |  | < 100 | > 10000 | 1000 to 10000 |  |  | + (<150)
12 | COc1ccc(C(C)(C)C)cc1CN[C@H]1[C@H](C(C)(C)C)[C@@H](C(=O)O)N(C(=O)[C@H](C)c2ccccc2)[C@H]1c1ccccc1 [II-315] | < 1000 | < 1000 | +++ (≥350) | > 200 |  |  |  |  |  | 
13 | COc1ccc(C(F)(F)F)cc1CN[C@@H]1[C@@H](C(C)(C)C)[C@H](C(=O)O)N(C(=O)[C@@H](C)Oc2ccccc2)[C@@H]1c1ccccc1 (racemic) [II-66] | 1000 to 10000 | 1000 to 10000 | ++ (≥150 and <350) | < 100 |  |  |  |  |  | 
14 | COc1ccc(C(C)(C)C)cc1CN[C@H]1[C@H](C(C)(C)C)[C@@H](C(=O)O)N(C(=O)C2CCCCC2)[C@H]1c1cccnc1OC(F)F [Example I-225] |  |  |  |  |  | 1000 to 10000 | 1000 to 10000 | +++ (≥350) | 100 to 200 | 
15 | COc1ccc(C2(C#N)CC2)cc1CN[C@H]1[C@H](C(C)(C)C)[C@@H](C(=O)O)N(C(=O)C2CCCCC2)[C@H]1c1ccccc1 [II-400] |  |  |  |  | 100 to 200 | 1000 to 10000 | 1000 to 10000 |  |  | +++ (≥350)
16 | COc1cc(C(F)(F)F)ccc1CN[C@H]1[C@H](C(C)(C)C)[C@@H](C(=O)O)N(C(=O)c2cccnc2)[C@H]1c1ccccc1 [III-163] |  |  |  |  | < 100 | 1000 to 10000 | 1000 to 10000 | ++ (≥150 and <350) |  | 
17 | COc1ccc(C(C)(C)C)cc1CN[C@H]1[C@H](C(C)(C)C)[C@@H](C(=O)O)N(C(=O)C2CCCCN2S(C)(=O)=O)[C@H]1c1ccccc1 (stereo partly shown) [Example I-138] |  |  |  |  |  | 1000 to 10000 | 1000 to 10000 | +++ (≥350) | > 200 | 
18 | COc1ccc(Cl)cc1CN[C@@H]1[C@@H](C(C)(C)C)[C@H](C(=O)O)N(C(=O)[C@H](OC)c2ccccc2)[C@@H]1c1ccccc1N(C)C [III-99] |  |  |  |  | < 100 | > 10000 | 1000 to 10000 | ++ (≥150 and <350) |  | 
19 | COc1cc(Cl)ccc1CN[C@@H]1[C@@H](C(C)(C)C)[C@H](C(=O)O)N(C(=O)C2CCCCC2)[C@@H]1c1ccccn1 (racemic) [III-82] |  |  |  |  | < 100 | 1000 to 10000 | 1000 to 10000 |  |  | ++ (≥150 and <350)
20 | CC(C)(C)[C@@H]1[C@@H](NCc2cc(Cl)ccc2OC(F)F)[C@@H](c2ccccc2)N(C(=O)C2CCCCC2)[C@H]1C(=O)O (racemic) [II-8] | 1000 to 10000 | 1000 to 10000 | +++ (≥350) | < 100 |  |  |  |  |  | 
21 | COc1ncc(C(F)(F)F)cc1CN[C@H]1[C@H](C(C)(C)C)[C@@H](C(=O)O)N(C(=O)[C@H]2CCCCO2)[C@H]1c1cccnc1N(C)C [II-478] |  |  |  |  | < 100 | 1000 to 10000 | 1000 to 10000 |  |  | ++ (≥150 and <350)
22 | COc1ccc2c(c1)CCC2C(=O)N1[C@H](C(=O)O)[C@@H](C(C)(C)C)[C@H](NCc2cc(C(C)(C)C)ccc2OC)[C@@H]1c1ccccc1 (stereo partly shown) [II-365] |  |  |  |  | > 200 | < 1000 | < 1000 |  |  | +++ (≥350)
23 | COc1ccc(C(C)(C)C)cc1CN[C@H]1[C@H](C(C)(C)C)[C@@H](C(=O)O)N(C(=O)[C@@H]2[C@H](C(F)(F)F)[C@@H]3CC[C@H]2O3)[C@H]1c1cccnc1N(C)C (relative stereo) [II-473] |  |  |  |  | > 200 | 1000 to 10000 | < 1000 |  |  | +++ (≥350)
24 | COc1ncc(CC(C)C)cc1CN[C@H]1[C@H](C(C)(C)C)[C@@H](C(=O)O)N(C(=O)C2CCCCC2)[C@H]1c1ccccc1 [Example I-76] |  |  |  |  |  | 1000 to 10000 | < 1000 | +++ (≥350) | > 200 | 
25 | COc1ncc(C(C)C)cc1CN[C@H]1[C@H](C(C)(C)C)[C@@H](C(=O)O)N(C(=O)C2CCCCC2)[C@H]1c1ccccc1 [II-157] | 1000 to 10000 | < 1000 | +++ (≥350) | > 200 |  |  |  |  |  | 
